Square brackets hold non-standard residues; d marks the D form. Ends that are not written are not given here. Peptide text beside a SMILES is read from it.

The target in one data set is T1, human GHRH receptor (Homo sapiens, UniProt Q02643).
T1 construct: expressed in transfected cells; host or cells: BHK (baby hamster kidney) 570 cells
T1 sequence (Q02643 23-423): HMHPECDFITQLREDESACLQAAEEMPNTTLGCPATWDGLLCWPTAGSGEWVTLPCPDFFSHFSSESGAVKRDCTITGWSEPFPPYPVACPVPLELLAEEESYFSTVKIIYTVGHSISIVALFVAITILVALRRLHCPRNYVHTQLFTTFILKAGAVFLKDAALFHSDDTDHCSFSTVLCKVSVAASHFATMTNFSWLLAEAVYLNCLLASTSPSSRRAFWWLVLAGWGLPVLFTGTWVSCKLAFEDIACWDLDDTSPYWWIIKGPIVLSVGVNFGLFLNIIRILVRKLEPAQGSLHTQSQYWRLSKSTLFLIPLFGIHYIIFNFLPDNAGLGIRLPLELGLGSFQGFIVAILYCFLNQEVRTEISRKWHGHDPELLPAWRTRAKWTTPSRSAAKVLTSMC
As to the kind of experiment: Competitive 125I-GHRH binding assay in BHK cell membrane preparations expressing the human GHRH receptor. To be noted: ratio IC50 of hGHRH(1-29)-NH2/IC50 analogue, mean±SEM. The protocol: Non specific binding was determined in presence of 1 μM hGHRH(1-29)NH2. Incubation was carried out at equilibrium (23° C., 60 min) and stopped by centrifugation (12,000 g, 5 min, at 4° C.). The radioactivity content in pellets was determined by gamma counting. The affinity of hGHRH(1-29) NH2 was tested in each experiment to assess the validity of the assay and determine the relative affinity of the analogues.
Values represent the mean±SEM of 3 experiments performed in triplicate for the analogues and the mean±SEM of 2 experiments performed in triplicate for hGHRH(1-44) NH2.
For the binding assay results presented in Tables 8 to 11, values represent the mean±SEM of 8 independent experiments performed in triplicate for the analogues and the mean±SEM of 4 experiments performed in triplicate for hGHRH(1-29)NH2. […] The relative affinity was obtained by taking the ratio IC50 of hGHRH (1-29)-NH2/IC50 analogue.

Data set [1] is described as follows: In vitro proteolysis assay in rat serum. The following applies: mean±SEM; for Residual concentration: incubation 0 min; for remaining at 8 min, 15 µM / remaining at 0.25 h, 15 µM / remaining at 0.5 h, 15 µM / remaining at 1 h, 15 µM: male, Sprague Dawley, read-out: Residual concentration; for remaining at 8 min, 15 µM: diluted 1/100, incubation 8 min; for remaining at 0.25 h, 15 µM: diluted 1/100, incubation 15 min; for remaining at 0.5 h, 15 µM: diluted 1/100, incubation 30 min; for remaining at 1 h, 15 µM: diluted 1/100, incubation 60 min. The format is in vitro ADME.
Procedure: Proteolysis was stopped by adding 800 μl of ice-cold stop buffer (potassium-phosphate buffer, acidified to pH 0.8 with trifluoroacetic acid (TFA) and boiling 5 min (rat serum only). After centrifugation (12000 g, 5 min, 4° C.) (rat serum only), serum-peptide mixtures were passed through a conditioned Sep-Pak C-18 cartridge to extract native GHRH or a GHRH analogue residual concentrations from serum proteins. The native GHRH or the analogue was eluted in 2 ml of 50% acetonitrile-0.01% TFA/50% 0.01% aqueous TFA. Two hundred μl of extracted peptide, representing 1 μg of GHRH or analogue at time 0, was quantified by analytical HPLC, using one μ-Bondapak C18 column (10 μm particle size, 0.39×15 cm) (rat serum) or two C18 column in series (human serum and plasma) and a binary solvent system composed of NaClO4 0.01 M, pH 2.5 and acetonitrile. A linear gradient from 30 to 60% acetonitrile over 45 min (rat serum) or 30 to 50% (human serum and plasma) was used.

Another data set in a line: in vitro. To be noted: male, human, plasma, Mean residual amount.
Data set [2] is described as follows: In vitro proteolysis assay in human serum. The format is in vitro ADME. The following applies: human serum.
Procedure: Ten μl of a 300 M solution of hGHRH (1-29)NH2 or of a GHRH analogue was solubilized in dimethylsulfoxide (DMSO) and incubated in one of the following conditions: a—190 μl serum (1/100 dilution in picopure water) from 2-month-old male Sprague Dawley rats, at 37° C. for 0, 8, 15, 30 or 60 min, in polypropylene tubes; b—190 μl of human healthy volunteer plasma (from Human Whole Blood Na EDTA, males, drug free (Algorithme Pharma Inc.); project: MTL-P2-155; Lot: MTLP2155-01, supplied by LAB Dev Int); and c—190 μl of human healthy volunteer pooled serum, Lot: X409 (supplied by LAB Dev Int), at 37° C. for 0, 60, 120, 180 or 420 min, in polypropylene tubes. Proteolysis was stopped by adding 800 μl of ice-cold stop buffer (potassium-phosphate buffer, acidified to pH 0.8 with trifluoroacetic acid (TFA) and boiling 5 min (rat serum only). After centrifugation (12000 g, 5 min, 4° C.) (rat serum only), serum-peptide mixtures were passed through a conditioned Sep-Pak C-18 cartridge to extract native GHRH or a GHRH analogue residual concentrations from serum proteins. The native GHRH or the analogue was eluted in 2 ml of 50% acetonitrile-0.01% TFA/50% 0.01% aqueous TFA. Two hundred μl of extracted peptide, representing 1 μg of GHRH or analogue at time 0, was quantified by analytical HPLC, using one μ-Bondapak C18 column (10 μm particle size, 0.39×15 cm) (rat serum) or two C18 column in series (human serum and plasma) and a binary solvent system composed of NaClO4 0.01 M, pH 2.5 and acetonitrile. A linear gradient from 30 to 60% acetonitrile over 45 min (rat serum) or 30 to 50% (human serum and plasma) was used.
More specifically, the values represent the mean, standard deviation and standard error from the mean of 3 to 7 experiments.

With `CC[C@H](C)[C@H](NC(=O)[C@H](C)NC(=O)[C@H](CC(=O)O)NC(=O)[C@@H](C)NC(=O)[C@@H](N)Cc1ccc(O)cc1)C(=O)N[C@@H](Cc1ccccc1)C(=O)N[C@H](C(=O)N[C@@H](C)C(=O)N[C@@H](CO)C(=O)N[C@H](Cc1ccc(O)cc1)C(=O)N[C@@H](CCCNC(=N)N)C(=O)N[C@@H](CCCCN)C(=O)N[C@H](C(=O)N[C@@H](CC(C)C)C(=O)N[C@@H](C)C(=O)N[C@@H](CCC(N)=O)C(=O)N[C@@H](CC(C)C)C(=O)N[C@@H](CO)C(=O)N[C@@H](C)C(=O)N[C@@H](CCCNC(=N)N)C(=O)N[C@H](CCCCN)C(=O)N[C@@H](CCCCN)C(=O)N[C@@H](CC(C)C)C(=O)N[C@@H](CCC(N)=O)C(=O)N[C@@H](CC(=O)O)C(=O)N[C@H](C(=O)N[C@@H](CCSC)C(=O)N[C@@H](CO)C(=O)N[C@@H](CCCNC(=N)N)C(N)=O)[C@@H](C)CC)C(C)C)[C@@H](C)O` [GHRH analogue #4, [D-Ala^2, Ala^8, D-Tyr^10, Ala^15, D-Lys^21, Lys^22] hGHRH(1-29)-NH2] (H-Y[dA]DAIFTAS[dY]RKVLAQLSAR[dK]KLQDIMSR-NH2; N-terminus assumed), the “Relative binding affinity (R1) in comparison with hGHRH(1-29)NH2 in BHK cells expressing the hGHRH receptor” value (“Relative binding affinity (R1)” for short) on human GHRH receptor is recorded as 0.05 ± 0.01. Moreover, in data set [1], the Residual concentration was 100 ± 0 % of initial concentration; the remaining at 8 min, 15 µM was 98 ± 2%; the remaining at 0.25 h, 15 µM worked out at 100%; the remaining at 0.5 h, 15 µM worked out at 99 ± 1%. Also, the remaining at 1 h, 15 µM in data set [1] turned out to be 97 ± 3%.

Take `CC[C@H](C)[C@H](NC(=O)[C@H](C)NC(=O)[C@H](CC(=O)O)NC(=O)[C@H](C)NC(=O)[C@@H](N)Cc1ccc(O)cc1)C(=O)N[C@@H](Cc1ccccc1)C(=O)N[C@H](C(=O)N[C@@H](CC(N)=O)C(=O)N[C@@H](CO)C(=O)N[C@@H](Cc1ccc(O)cc1)C(=O)N[C@@H](CCCNC(=N)N)C(=O)N[C@@H](CCCCN)C(=O)N[C@H](C(=O)N[C@@H](CC(C)C)C(=O)NCC(=O)N[C@@H](CCC(N)=O)C(=O)N[C@@H](CC(C)C)C(=O)N[C@@H](CO)C(=O)N[C@@H](C)C(=O)N[C@@H](CCCNC(=N)N)C(=O)N[C@@H](CCCCN)C(=O)N[C@@H](CC(C)C)C(=O)N[C@@H](CC(C)C)C(=O)N[C@@H](CCC(N)=O)C(=O)N[C@@H](CC(=O)O)C(=O)N[C@H](C(=O)N[C@@H](CCSC)C(=O)N[C@@H](CO)C(=O)N[C@@H](CCCNC(=N)N)C(N)=O)[C@@H](C)CC)C(C)C)[C@@H](C)O` [hGHRH(1-29)NH2, reference compound]: in data set [1], the Residual concentration is reported as 100 ± 0 % of initial concentration; the remaining at 8 min, 15 µM was 81 ± 2%; the remaining at 0.25 h, 15 µM is 66 ± 3%; the remaining at 0.5 h, 15 µM came out at 43 ± 2%. Also, the remaining at 1 h, 15 µM in data set [1] is 16 ± 1%. Also, in the data set “in vitro”, the remaining at 1 h, 15 µM is 53%; the remaining at 2 h, 15 µM was 44%; the remaining at 3 h, 15 µM worked out at 23%; the remaining at 7 h, 15 µM amounted to 5%. In data set [2] (incubation time 0 min), this compound showed a Mean residual amount of 100%. Moreover, the Mean residual amount result in data set [2] (incubation time 420 min) was “disappeared totally”. Moreover, the remaining at 1 h, 15 µM in data set [2] (human, pooled human serum, incubation time 60 min, read-out: Mean residual amount) came out at 57%. The remaining at 2 h, 15 µM in data set [2] (human, pooled human serum, incubation time 120 min, read-out: Mean residual amount) stood at 37%. Moreover, the remaining at 3 h, 15 µM in data set [2] (human, pooled human serum, incubation time 180 min, read-out: Mean residual amount) stood at 16%. In addition, in data set [2] (human, pooled human serum, incubation time 420 min, read-out: Mean residual amount), the remaining at 7 h, 15 µM was found to be 0%.

For the compound `CC[C@H](C)[C@H](NC(=O)[C@H](C)NC(=O)[C@H](CC(=O)O)NC(=O)[C@@H](C)NC(=O)[C@@H](N)Cc1ccc(O)cc1)C(=O)N[C@@H](Cc1ccccc1)C(=O)N[C@H](C(=O)N[C@@H](C)C(=O)N[C@@H](CO)C(=O)N[C@@H](Cc1ccc(O)cc1)C(=O)N[C@@H](CCCNC(=N)N)C(=O)N[C@@H](CCCCN)C(=O)N[C@H](C(=O)N[C@@H](CC(C)C)C(=O)N[C@@H](C)C(=O)N[C@@H](CCC(N)=O)C(=O)N[C@@H](CC(C)C)C(=O)N[C@@H](CO)C(=O)N[C@@H](C)C(=O)N[C@@H](CCCNC(=N)N)C(=O)N[C@@H](CCCCN)C(=O)N[C@@H](CCCCN)C(=O)N[C@@H](CC(C)C)C(=O)N[C@@H](CCC(N)=O)C(=O)N[C@@H](CC(=O)O)C(=O)N[C@H](C(=O)N[C@@H](CCSC)C(=O)N[C@@H](CO)C(=O)N[C@@H](CCCNC(=N)N)C(N)=O)[C@@H](C)CC)C(C)C)[C@@H](C)O` [GHRH analogue #1, [D-Ala^2, Ala^8, Ala^15, Lys^22] hGHRH(1-29)-NH2] (H-Y[dA]DAIFTASYRKVLAQLSARKKLQDIMSR-NH2; N-terminus assumed), the “Relative binding affinity (R1)” value at human GHRH receptor (listed as 1) is reported as 499 ± 234. Moreover, on human GHRH receptor (listed as #1), the “Relative binding affinity (R1)” value is on record as “significantly higher binding affinity”. Further, in data set [1], the Residual concentration is listed as 100 ± 0 % of initial concentration; the remaining at 8 min, 15 µM was found to be 75 ± 12%; the remaining at 0.25 h, 15 µM was found to be 70 ± 15%; the remaining at 0.5 h, 15 µM amounted to 53 ± 8%. The remaining at 1 h, 15 µM in data set [1] was 30 ± 6%. In the data set “in vitro”, the remaining at 1 h, 15 µM came to 79%; the remaining at 2 h, 15 µM turned out to be 63%; the remaining at 3 h, 15 µM came out at 68%.

Consider “YADAIFTAAYRKVLAQLSARKALQDIMSR-NH2 [GHRH analogue #2, [Ala^8, Ala^9, Ala^15, Ala^22] hGHRH(1-29)-NH2]”, for which, in data set [1], the Residual concentration is 100 ± 0 % of initial concentration; the remaining at 8 min, 15 µM was 83 ± 3%; the remaining at 0.25 h, 15 µM was 73 ± 5%; the remaining at 0.5 h, 15 µM amounted to 53 ± 3%. For the same compound, in data set [1], the remaining at 1 h, 15 µM was 29 ± 2%.

As to `CC[C@H](C)[C@H](NC(=O)[C@H](C)NC(=O)[C@H](CC(=O)O)NC(=O)[C@@H](C)NC(=O)[C@@H](N)Cc1ccc(O)cc1)C(=O)N[C@@H](Cc1ccccc1)C(=O)N[C@H](C(=O)N[C@@H](CC(N)=O)C(=O)N[C@@H](CO)C(=O)N[C@H](Cc1ccc(O)cc1)C(=O)N[C@@H](CCCNC(=N)N)C(=O)N[C@@H](CCCCN)C(=O)N[C@H](C(=O)N[C@@H](CC(C)C)C(=O)NCC(=O)N[C@@H](CCC(N)=O)C(=O)N[C@@H](CC(C)C)C(=O)N[C@@H](CO)C(=O)N[C@@H](C)C(=O)N[C@@H](CCCNC(=N)N)C(=O)N[C@@H](CCCCN)C(=O)N[C@@H](CCCCN)C(=O)N[C@@H](CC(C)C)C(=O)N[C@@H](CCC(N)=O)C(=O)N[C@@H](CC(=O)O)C(=O)N[C@H](C(=O)N[C@@H](CCSC)C(=O)N[C@@H](CO)C(=O)N[C@@H](CCCNC(=N)N)C(N)=O)[C@@H](C)CC)C(C)C)[C@@H](C)O` [GHRH analogue #3, [D-Ala^2, D-Tyr^10, Lys^22] hGHRH(1-29)-NH2] (H-Y[dA]DAIFTNS[dY]RKVLGQLSARKKLQDIMSR-NH2; N-terminus assumed), at human GHRH receptor (D-Tyr^10, Lys^22]human GHRH(1-29)NH2), the “Relative binding affinity (R1)” value is given as 239 ± 55. In data set [1], the Residual concentration was 100 ± 0 % of initial concentration; the remaining at 8 min, 15 µM was found to be 82 ± 7%; the remaining at 0.25 h, 15 µM amounted to 88 ± 7%; the remaining at 0.5 h, 15 µM turned out to be 70 ± 12%. Also, the remaining at 1 h, 15 µM in data set [1] was 36 ± 4%. In “in vitro”, this compound yielded a remaining at 1 h, 15 µM of 87%; a remaining at 2 h, 15 µM of 78%; a remaining at 3 h, 15 µM of 81%.
